Test results as given in PMC10690091 (Cancer Research, 2023).

Columns and labels:
[1] = tested on: ER transcriptional activity; test: RNA-seq ER-regulated gene expression in MCF7 and CAMA-1 cells; type: cell-based, human; details: 100 nmol/L + 1 nmol/L estradiol, 24 hours
Method: MCF7 and CAMA-1 cells were seeded into 6-well microplates in phenol red-free RPMI-1640 medium (Invitrogen) containing 2 mmol/L L-glutamine and 5% (volume/volume, v/v) charcoal-stripped FBS (Sigma). […] Samples were harvested in 1 mL of QIAzol lysis buffer and snap-frozen. Snap-frozen tissue from PDX studies was homogenized and resuspended in QIAzol lysis buffer. RNA was extracted using RNeasy 96 QIAcube HT total RNA Cell with DNAse treatment, and samples randomized over 96-well plates. RNA was quantified using the Qubit RNA BR kit (Q10213 Invitrogen), per the manufacturer's instructions.
[…], RNA integrity was analyzed on a TapeStation 4200 using the RNA 6000 Nano Kit (5067 1511, Agilent), according to the manufacturers’ instructions. The Illumina Truseq stranded mRNA library was generated by the Cancer Research UK Cambridge Institute Genomic core facility, and sequencing of cell lines was performed on the Illumina Hiseq4000 platform, providing single-end 50 base pair reads and around 20 million reads per sample. PDX samples were sequenced using Illumina NovaSeq600, providing paired-end 100 base pair reads and around 34 million reads per sample.
Quality control and gene expression quantification of RNA sequencing (RNA-seq) were performed using the RNA-seq pipeline implemented in bcbio-nextgen (https://bcbio-nextgen.readthedocs.org/en/latest/). Reads were aligned to the University of California (Santa Cruz, CA) Homo sapiens GRCh38 genome build, augmented with transcript information from Ensembl release 86 using HiSat2 ([31]). Alignments were evaluated for evenness of coverage, ribosomal RNA content, genomic context of alignments, and complexity, using a combination of FastQC, Qualimap, and custom computational tools ([32]). Transcripts per million measurements per isoform were generated by quasi-alignment using Salmon and were used to estimate the abundance of genes ([33]). The aggregated gene counts were used for differential gene expression analyses using DESeq2 ([34]).

[2] = target: T1, ER in Ishikawa endometrial cancer cell line (Homo sapiens, UniProt P03372); test: ER degradation and agonism (PgR expression) in Ishikawa cells; type: cell-based
T1 sequence (P03372 1-595): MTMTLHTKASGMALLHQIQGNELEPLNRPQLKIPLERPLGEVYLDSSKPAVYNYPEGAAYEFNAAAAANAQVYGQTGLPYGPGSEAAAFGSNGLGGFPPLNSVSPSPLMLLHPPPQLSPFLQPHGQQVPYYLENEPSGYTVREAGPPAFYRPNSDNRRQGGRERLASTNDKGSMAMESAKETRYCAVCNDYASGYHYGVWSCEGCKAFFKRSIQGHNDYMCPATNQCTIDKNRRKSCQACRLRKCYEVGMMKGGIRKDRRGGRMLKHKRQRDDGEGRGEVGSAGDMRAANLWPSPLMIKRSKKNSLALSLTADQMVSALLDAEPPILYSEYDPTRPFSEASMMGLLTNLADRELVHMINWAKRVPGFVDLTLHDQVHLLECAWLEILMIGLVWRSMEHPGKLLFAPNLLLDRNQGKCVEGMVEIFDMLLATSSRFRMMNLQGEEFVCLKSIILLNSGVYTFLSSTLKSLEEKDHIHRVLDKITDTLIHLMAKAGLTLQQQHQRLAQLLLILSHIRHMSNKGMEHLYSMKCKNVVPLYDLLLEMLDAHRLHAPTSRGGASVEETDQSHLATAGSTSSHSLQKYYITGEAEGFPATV
Method: Cells were seeded into 12-well tissue culture-treated plates (0.5×10^6 cells/well) in phenol red-free RPMI medium containing 5% (v/v) charcoal-stripped FBS.
Cell lysates were loaded on NuPAGE 4% to 12% Bis-Tris Midi Protein Gels, transferred to nitrocellulose membranes and immunoblotted with anti-ER antibody (clone SP1, Thermo Fisher Scientific). To detect ER agonism, Ishikawa cells were incubated in media containing 5% (v/v) double charcoal-stripped FBS, achieved by stripping FBS using activated charcoal (C9157, Sigma). Blots were probed with anti-PgR antibody (clone 636, Dako) then horseradish peroxidase secondary antibody (anti-mouse, 7076 Cell Signaling Technology or anti-rabbit, 7070 Cell Signaling Technology). Protein levels were measured on the G-box using Pierce West Dura and West Femto chemiluminescent reagents and Syngene software.

CAMA-1 cells = test: Sytox Green proliferation assay, CAMA-1; type: cell-based, human; details: 7-day proliferation
Method: MCF7 and CAMA-1 cells were seeded into 96-well microplates in phenol red-free RPMI-1640 medium containing 2 mmol/L L-glutamine and 5% (v/v) charcoal-stripped FBS at 4×10^3 and 8×10^3 cells/well, based on the doubling time of each cell line. Plates were incubated for 24 hours (37°C; 5% CO2) and a 10-point concentration range of selected compounds was dispensed onto the cells. Dimethyl sulfoxide (DMSO) was dispensed into control wells to give a 0.1% final concentration. One plate was untreated, as a day 0 control. […] were counted at days 0 and 7 (or day 6 for Y537S ESR1m MCF7 cells) using Sytox Green nucleic assay stain (180 nmol/L per well). Green (dead) cells were counted at days 0 and 7 using an Acumen Explorer (TTP Labtech) or Cellinsight imager (Thermo Fisher Scientific). Saponin 0.045% (weight/volume) was added to permeabilize the cells overnight, permitting total cell count. The number of live cells was calculated by subtracting dead cells from the total cell count, and curve-fitted using GraphPad Prism. Average cell counts from the day 0 plate were used to determine 0% cell growth. A dose–response curve was plotted using non-linear regression to determine the IC50 and bottom-of-curve values. Viability assay methods are described in Supplementary Methods.

ST3632 ESR1wt PDX = test: Efficacy in ST3632 PDX model; type: in vivo, mice; details: oral camizestrant 10 mg/kg daily, palbociclib 50 mg/kg daily, abemaciclib 50 mg/kg daily
[3] = tested on: MCF7 palbociclib-resistant cell lines (PC1, PC6, PC8); test: Cell Titer Glo viability in palbociclib-resistant MCF7 lines; type: cell-based, human; details: 7 days
Method: B) Viability of CTC174 PDX-derived […]
organoids treated with the indicated drugs for 144 hours. Mean ± standard error of the mean (one experiment using six independent CTC174 organoid lines in three technical replicates). P values were calculated using two-tailed paired t tests of biological replicates. C) Immunoblots of CTC174 PDX tumors and quantification of ER, pS6, S6, or PCNA following treatment. Mean ± standard deviation (n=5). p values were calculated using ANOVA tests. D) Genetic backgrounds for cell lines with putative mechanism of resistance to palbociclib indicated for each cell line. Combination matrix plots […]
palbociclib or abemaciclib at indicated doses for 7 days using Cell Titer Glo viability assay. Values represent measured cell viability normalized to Day 0 (treatment day) and dimethyl sulfoxide control at Day 7. […]
protein levels measured by western blot. […]
dependent kinase 4/6 (inhibitor); Ctrl, control; del, deletion; ER, estrogen receptor; ESR1, estrogen receptor 1 gene; Everol, everolimus; MCL1, induced myeloid leukemia cell differentiation protein; mut, mutation; nd, not determined; Palbo, palbociclib; PCNA, proliferating cell nuclear antigen; PDX, patient-derived xenograft; PgR, progesterone receptor; PIK3CA, phosphatidylinositol 3-kinase subunit α; Rb, retinoblastoma; S6, Ribosomal protein S6; veh, vehicle; wt, wild-type […]
An untreated plate was read on […]

ST1799/HI/PBR PDX = test: Efficacy in palbociclib-resistant ST1799/HI/PBR PDX model; type: in vivo, mice; details: camizestrant 10 mg/kg daily, palbociclib 50 mg/kg, abemaciclib 50 mg/kg, capivasertib 130 mg/kg, 40 days
Method: For all PDX models, tumors were measured twice weekly; changes in tumor volume and growth inhibition were determined by bilateral Vernier caliper measurement (length x width). Length was the longest diameter across the tumor and width the corresponding perpendicular.
For efficacy studies, animals were randomized into treatment groups and dosing started once tumor volume reached 150–300 mm^3. Details of efficacy studies, and group sizes and treatments are described in corresponding figure legends. PDX models in Fig. 6 and Supplementary Fig. S1 were part of the multi-arm study (with arms irrelevant to this publication) with common control monotherapy arms (e.g., the vehicle-treated group).
(TV) was calculated using the formula: TV (mm3) = (3.142 x max (length:width) x min […]
established tumors were removed from two donor mice and dissected into 3x3x3 mm pieces in RPMI 1640 media. […] TV was calculated as TV (mm3) = width2 x length x 0.52.
For the combination studies in the CTC174 PDX model (hormone-independent), established tumors were removed from donor mice and dissected into 3x3x3 mm pieces in RPMI 1640 media. […] TV was calculated using the formula: TV (mm3) = (3.142 x max (length:width) x min (length:width) x min (length:width))/6,000, or (mm3) = width2 x length x 0.52 for the CTC174 study. […]

In the case of C[C@@H]1Cc2c([nH]c3ccccc23)[C@@H](c2c(F)cc(/C=C/C(=O)O)cc2F)N1CC(C)(C)F [AZD9496], the “estradiol-driven gene expression (ER transcriptional activity)” value [1] is reported as “antagonized all estradiol-driven gene expression”, the “ER agonism (PgR expression as a marker)” value [2] is reported as “evident in endometrial in vitro and in vivo models” and the cell growth inhibition (CAMA-1 cells) is reported as “weaker antiproliferative effects”.
CCN1CCN(Cc2ccc(Nc3ncc(F)c(-c4cc(F)c5nc(C)n(C(C)C)c5c4)n3)nc2)CC1 [abemaciclib, reference compound] was tested, and the “reduction of relative TV compared with the vehicle” value (ST3632 ESR1wt PDX) was 46% and the “sensitivity of palbociclib-resistant lines” value [3] was “sensitive”.
For NC1(C(=O)N[C@@H](CCO)c2ccc(Cl)cc2)CCN(c2nc[nH]c3nccc2-3)CC1 [capivasertib, reference compound], the tumor growth (ST1799/HI/PBR PDX) was “could not completely arrest tumor growth”.
With CC(=O)c1c(C)c2cnc(Nc3ccc(N4CCNCC4)cn3)nc2n(C2CCCC2)c1=O [palbociclib] the “reduction of relative TV compared with the vehicle” value (ST3632 ESR1wt PDX) was 0%.
